The text below walks through data of ChEMBL document CHEMBL5537179, “Combination Therapy and Dual-Target Inhibitors Based on LSD1: New Emerging Tools in Cancer Therapy” (J Med Chem, 2024).

A word on the IC50: it is the concentration that inhibits the measured activity by half. What is called inhibition is the share of the control response that was lost under treatment. One may read the Cmax as the maximum level reached in the sampled fluid or tissue. In general, half-life refers to the time needed for the level to fall by half in the phase considered. A high value points to slow loss. Usually bioavailability stands for the share of a dose that reaches the circulation, judged against a reference dose that is usually intravenous. Low readings indicate little systemic uptake, high ones much systemic uptake. Broadly, the EC50 is the midpoint of the concentration-response curve. For orientation: Tmax means the time at which the peak concentration occurs.

Series [1] addresses Lysine-specific demethylase 6A (Homo sapiens, UniProt O15550). The series can be described thus: Inhibition of human UTX using Biotin-KAPRKQLATKAARK(me3)SAPATGG as substrate by MALDI-TOF analysis.
The target of series [2] is T1, Lysine-specific histone demethylase 1A (Homo sapiens, UniProt O60341).
The target of series [3] is T2, Histone deacetylase 1 (Homo sapiens, UniProt Q13547). The experiment in a line: Inhibition of HDAC1 (unknown origin).
Series [4] has as its target T2, Histone deacetylase 1. The experiment in a line: Inhibition of human recombinant HDAC1 using fluorogenic HDAC substrate preincubated for 30 mins followed by substrate addition and measured after 15 mins by fluorescence based assay.
The next series concerns the target Tubulin. The series can be described thus: Inhibition of tubulin polymerization (unknown origin) by fluorescence based assay. It is filed as protein-complex assay, Homo sapiens.
The target of series [5] is T1, Lysine-specific histone demethylase 1A. The experiment in a line: Inhibition of human LSD1 expressed in Escherichia coli Rosetta (DE3) cells using H3K4me2 peptide as substrate and measured after 1 hr by fluorescence based analysis.
Another series concerns the target DCN1-like protein 1 (Homo sapiens, UniProt Q96GG9). The series can be described thus: Inhibition of DCN1 (unknown origin) by TR-FRET analysis.
The target in series [6] is T1, Lysine-specific histone demethylase 1A. The series can be described thus: Inhibition of LSD1 (unknown origin) at 10 uM relative to control.
A short description of series [7]: Cmax in CD-1 mouse at 2 mg/kg, iv. To be noted: in vivo. The series is classed as ADME, organism-based.
Series [8] is described as follows: Half life in CD-1 mouse at 2 mg/kg, iv. It is filed as ADME, organism-based. To be noted: in vivo.
Series [9] in a line: Oral bioavailability in mouse. To be noted: in vivo. The series is classed as ADME, organism-based.
Series [10] can be described thus: Half life in BALB/c mouse plasma at 5 mg/kg, ip measured after 24 hrs by LC-MS/MS analysis. The series is classed as ADME, organism-based.
A short description of series [11]: Oral bioavailability in BALB/c mouse at 5 mg/kg measured after 24 hrs by LC-MS/MS analysis. It is filed as ADME, organism-based. The following applies: in vivo.
The subject of another series is Leukemia cell. The series can be described thus: Antitumor activity against human Leukemia cells assessed as reduction in cell growth incubated for 72 hrs by MTT assay. The series is classed as functional, cell-based. For orientation: Tetrazolium assays rely on reduction of a dye to a coloured formazan, in cell work by metabolically active cells.
For series [12], the target named is T3, Bromodomain-containing protein 4 (Homo sapiens, UniProt O60885). The series can be described thus: Inhibition of human BRD4 BD1 by TR-FRET assay. (In general: TR-FRET usually uses a lanthanide donor and a delayed reading to cut background.)
The target in series [13] is T3, Bromodomain-containing protein 4. The series can be described thus: Inhibition of human BRD4 BD2 by TR-FRET assay.
A further series in a line: in vitro. To be noted: human, THP-1 cells.
A further series concerns MV4-11. The experiment in a line: cells. The following applies: Homo sapiens, MV4-11, 72 h.
Series [14] is described as follows: Cmax in human at 5 mg/kg, po. It is filed as ADME, organism-based. The following applies: in vivo.
Another series has as its system Kasumi 1. The experiment in a line: cells. The following applies: Homo sapiens, Kasumi 1, 168 h.
A short description of series [15]: Tmax in human at 5 mg/kg, po. It is filed as ADME, organism-based. To be noted: in vivo.
The target in another series is Spermine oxidase (Homo sapiens, UniProt Q9NWM0). The series can be described thus: Inhibition of SMOX (unknown origin) using spermine as substrate preincubated for 1 hr followed by substrate addition and measured after 20 mins by luminometer analysis.
Series [16] addresses T1, Lysine-specific histone demethylase 1A. The series can be described thus: Inhibition of human LSD1 by luminescence assay.
Series [17] in a line: Half life in human plasma. It is filed as ADME, cell-free.

T2 sequence (Q13547 whole entry): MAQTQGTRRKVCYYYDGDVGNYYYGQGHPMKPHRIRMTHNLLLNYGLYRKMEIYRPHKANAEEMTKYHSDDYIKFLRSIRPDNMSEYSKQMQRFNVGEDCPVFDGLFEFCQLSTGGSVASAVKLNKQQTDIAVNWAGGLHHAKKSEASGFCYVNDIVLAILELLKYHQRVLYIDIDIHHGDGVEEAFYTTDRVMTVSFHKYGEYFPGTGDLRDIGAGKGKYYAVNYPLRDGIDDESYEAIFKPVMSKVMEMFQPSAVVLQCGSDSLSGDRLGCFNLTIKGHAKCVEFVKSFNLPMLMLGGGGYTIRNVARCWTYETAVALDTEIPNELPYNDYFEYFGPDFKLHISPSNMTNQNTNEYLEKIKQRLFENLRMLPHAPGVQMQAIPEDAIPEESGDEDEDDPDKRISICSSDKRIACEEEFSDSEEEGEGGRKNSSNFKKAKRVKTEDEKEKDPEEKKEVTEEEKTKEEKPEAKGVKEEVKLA
Sequence of DCN1-like protein 1 (Q96GG9 whole entry): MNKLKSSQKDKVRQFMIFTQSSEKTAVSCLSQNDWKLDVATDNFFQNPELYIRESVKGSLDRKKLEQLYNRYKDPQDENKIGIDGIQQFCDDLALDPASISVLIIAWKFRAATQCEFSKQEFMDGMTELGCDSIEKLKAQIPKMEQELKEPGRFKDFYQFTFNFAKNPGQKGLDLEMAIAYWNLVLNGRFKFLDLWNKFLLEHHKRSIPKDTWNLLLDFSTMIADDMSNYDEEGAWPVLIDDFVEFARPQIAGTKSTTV
Sequence of Lysine-specific demethylase 6A (O15550 whole entry): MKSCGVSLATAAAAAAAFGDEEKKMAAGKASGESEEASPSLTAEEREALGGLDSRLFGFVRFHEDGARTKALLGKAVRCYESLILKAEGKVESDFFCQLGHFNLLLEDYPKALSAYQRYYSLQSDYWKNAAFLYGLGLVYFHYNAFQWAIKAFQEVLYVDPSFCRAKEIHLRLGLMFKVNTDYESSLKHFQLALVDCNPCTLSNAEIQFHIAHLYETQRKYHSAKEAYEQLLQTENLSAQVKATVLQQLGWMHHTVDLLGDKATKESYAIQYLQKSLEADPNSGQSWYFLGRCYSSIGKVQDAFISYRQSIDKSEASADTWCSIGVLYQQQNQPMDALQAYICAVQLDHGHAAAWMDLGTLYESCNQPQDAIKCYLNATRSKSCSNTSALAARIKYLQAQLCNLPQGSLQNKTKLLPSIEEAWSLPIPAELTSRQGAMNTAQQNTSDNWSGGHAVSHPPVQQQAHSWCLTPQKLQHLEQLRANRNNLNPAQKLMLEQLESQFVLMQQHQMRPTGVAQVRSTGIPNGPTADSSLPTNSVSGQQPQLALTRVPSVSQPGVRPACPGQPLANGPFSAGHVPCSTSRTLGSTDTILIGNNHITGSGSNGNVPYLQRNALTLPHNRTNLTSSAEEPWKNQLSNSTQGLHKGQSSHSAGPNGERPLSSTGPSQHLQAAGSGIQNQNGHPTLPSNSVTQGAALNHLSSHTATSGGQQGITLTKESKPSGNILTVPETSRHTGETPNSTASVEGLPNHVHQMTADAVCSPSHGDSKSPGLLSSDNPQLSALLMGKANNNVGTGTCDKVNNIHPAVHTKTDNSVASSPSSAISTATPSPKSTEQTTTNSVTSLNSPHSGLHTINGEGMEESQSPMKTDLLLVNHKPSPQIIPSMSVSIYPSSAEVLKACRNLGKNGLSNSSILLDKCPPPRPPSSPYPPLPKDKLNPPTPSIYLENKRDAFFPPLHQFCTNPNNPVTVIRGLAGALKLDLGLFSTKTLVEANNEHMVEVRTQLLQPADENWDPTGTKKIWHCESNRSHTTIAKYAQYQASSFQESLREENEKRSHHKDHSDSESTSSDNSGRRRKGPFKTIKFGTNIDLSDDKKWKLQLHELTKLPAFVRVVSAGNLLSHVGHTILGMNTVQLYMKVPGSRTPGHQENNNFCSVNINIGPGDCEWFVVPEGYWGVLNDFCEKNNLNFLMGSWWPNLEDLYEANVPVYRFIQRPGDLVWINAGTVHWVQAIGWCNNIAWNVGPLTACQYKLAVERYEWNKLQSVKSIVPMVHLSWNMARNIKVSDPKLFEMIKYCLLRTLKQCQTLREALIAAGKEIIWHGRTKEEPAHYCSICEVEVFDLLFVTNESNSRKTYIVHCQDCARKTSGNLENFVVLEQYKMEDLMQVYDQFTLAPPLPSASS
Sequence of Spermine oxidase (Q9NWM0 whole entry): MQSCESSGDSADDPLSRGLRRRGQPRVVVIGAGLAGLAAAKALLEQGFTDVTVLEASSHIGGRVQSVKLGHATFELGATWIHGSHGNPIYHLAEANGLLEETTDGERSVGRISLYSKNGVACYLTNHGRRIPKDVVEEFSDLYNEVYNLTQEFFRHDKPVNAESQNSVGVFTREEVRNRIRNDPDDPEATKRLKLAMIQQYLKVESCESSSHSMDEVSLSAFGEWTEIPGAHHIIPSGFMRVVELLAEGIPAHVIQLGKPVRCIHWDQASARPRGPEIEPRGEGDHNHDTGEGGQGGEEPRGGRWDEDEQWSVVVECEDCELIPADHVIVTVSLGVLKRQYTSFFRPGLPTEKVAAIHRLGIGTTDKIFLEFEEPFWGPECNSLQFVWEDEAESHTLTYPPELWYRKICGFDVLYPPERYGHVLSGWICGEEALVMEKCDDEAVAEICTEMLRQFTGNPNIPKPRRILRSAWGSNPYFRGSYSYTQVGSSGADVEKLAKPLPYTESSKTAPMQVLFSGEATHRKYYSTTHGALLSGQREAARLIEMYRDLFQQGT

Turning to `NC1CC1c1ccc(NC(=O)c2ccc(O)c3ncccc23)cc1` (stereo not given), the IC50 in series [1] was 27000 nM; in series [2], < 1000 nM. As to `Nc1ccccc1NC(=O)c1ccc(CCCC(=O)Nc2ccc(C3CC3N)cc2)cc1` (stereo not given), the IC50 (in series [2]; against Histone deacetylase 1 [3]) was 300 nM each time. In the case of `NC1CC1c1ccc(NC(=O)CCCc2ccccc2)cc1` (stereo not given), the IC50 on Histone deacetylase 1 [4] is > 30000 nM. As for `O=S1(=O)CCCN(S(=O)(=O)c2ccc(-c3cnc(C4CC4)o3)cc2)c2ccccc21`, the IC50 against Tubulin stood at 3100 nM; in [5] it was 2800 nM.

Consider `CN(C)CCn1nnnc1Sc1ccnc2nc(SCc3ccc(Br)cc3)nn12`, for which the IC50 against DCN1-like protein 1 came to 14.8 nM. In series [6], `Nc1n[nH]c(NCc2ccccc2Oc2ccc(-c3ccccc3)cc2)n1` came in with an inhibition of 52.1%. In the case of `O=C(O)c1ccc(CN2CCC(CN[C@@H]3C[C@H]3c3ccccc3)CC2)cc1` [GSK2879552], the concentration in [7] peaked (Cmax) at 720 ng/mL. In series [8], this molecule gave a half-life of 1.9 h. In [9], the bioavailability was determined as 59.2%. The molecule `N[C@H]1CC[C@H](N[C@@H]2C[C@H]2c2ccccc2)CC1` showed a half-life in [10] of 10 h. In series [11], the bioavailability worked out at 77%. For the same molecule, the EC50 in the series with Leukemia cell is 0.1 nM.

Take `C/C(=N\NC(=O)c1cccc(S(=O)(=O)N2CCOCC2)c1)c1cc(Cl)ccc1O`: the results for the IC50 in series [12] and in series [13] were 77 nM and 33 nM, respectively. `COc1ccc(-c2c(-c3ccc(C#N)c(F)c3)nc(N3CCC(N)CC3)n(C)c2=O)cc1F.O=S(=O)(O)c1ccccc1` [PULRODEMSTAT BESILATE]: the IC50 at 72 h in the series “in vitro” came out at 7 nM. For the same molecule, the results for the IC50 with MV4-11 and in the series on Kasumi 1 were 1400 nM and 2 nM, respectively. The Cmax in [14] worked out at 19 ng/mL. Moreover, the Tmax in series [15] was 4 h. On to `C=C/C=C/c1cccc(Oc2cccc(Cl)c2CNc2nc(N)n[nH]2)c1/C=C/C=C`, for which, on Spermine oxidase, the IC50 was found to be 148000 nM. In turn, `COC(=O)/C=C/c1ccc(CN(C(=O)OC(C)(C)C)C2CC2c2ccc(F)cc2)cc1` (stereo not given) came in with an IC50 in series [16] of 50 nM. As to `Nc1nnc(CN[C@@H]2C[C@H]2c2ccc(OCc3ccccc3)cc2)o1`, the half-life in series [17] was 22 h.
